Experimental data published in PMC6979384, “Characterization of the plant homeodomain (PHD) reader family for their histone tail interactions” (Epigenetics & Chromatin, 2020).

Key:
Experiment in all cases: Histone peptide microarray
Format in all cases: binding, human
Conditions in all cases: sheet "Array Heatmap"
[1] = tested on: CHD5 (PPCC)
Method in brief: (§1)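 Readout is array binding signal, reported as the mean and standard deviation over four replicates. Each purified GST-fused PHD domain was incubated at 0.5 μM with a library of 293 modified histone peptides.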

[2] = tested on: PHF8
Method in brief: as §1

[3] = tested on: KDM5B (1)
Method in brief: as §1

[4] = tested on: KDM7A
Method in brief: as §1

[5] = tested on: ING4
Method in brief: as §1

[6] = tested on: MORC3 (CW)
Method in brief: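 Each reader, produced as a GST fusion and purified, was tested at 0.5 μM on synthetic histone peptides (293 in total) carrying single or combinatorial marks. Intensities averaged over four replicates.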

[7] = tested on: ING5
Method in brief: as §1

[8] = tested on: MLL5
Method in brief: as §1

[9] = tested on: CHD4 (PPCC)
Method in brief: as §1

[10] = tested on: ING3
Method in brief: as §1

[11] = tested on: ING2
Method in brief: as §1

[12] = tested on: DIDO1
Method in brief: as §1

[13] = tested on: KDM4C (TTP)
Method in brief: as §1

[14] = tested on: RAG2
Method in brief: as §1

[15] = tested on: BAZ2B
Method in brief: as §1

[16] = tested on: KDM5B (3)
Method in brief: as §1

[17] = tested on: KDM5A (1)
Method in brief: as §1

[18] = tested on: PHF23
Method in brief: as §1

[19] = tested on: DPF2 (PPC2W2)
Method in brief: as §1

[20] = tested on: TAF3
Method in brief: as §1

[21] = tested on: PHF21A
Method in brief: as §1

[22] = tested on: CHD5 (PCC)
Method in brief: as §1

[23] = tested on: PHF13
Method in brief: as §1

[24] = tested on: ING1
Method in brief: as §1

[25] = tested on: KDM5A (3)
Method in brief: as §1

[26] = tested on: PHRF1 (RP)
Method in brief: as §1

[27] = tested on: PHF2
Method in brief: as §1

[28] = tested on: AIRE (PP)
Method in brief: as §1

[29] = tested on: TRIM66 (PB)
Method in brief: as §1

[30] = tested on: BPTF (PB)
Method in brief: as §1

[31] = tested on: SP140L
Method in brief: as §1

[32] = GST-tagged reader, histone peptide array, total n = 4

Substance: H3 (74-84): H3 74-84 (IAQDFKTDLRF; UniProt P68431 75-85, looked up, fragment)
- Array Heatmap signal, CHD5 (PPCC) [1, 32]: 0.6043
- Array Heatmap signal, PHF8 [2, 32]: 0.3649
- Array Heatmap signal, KDM5B (1) [3, 32]: 0.6254
- Array Heatmap signal, KDM7A [4, 32]: 0.4511
- Array Heatmap signal, ING4 [5, 32]: 0.5059
- Array Heatmap signal, MORC3 (CW) [6, 32]: 0.3965
- Array Heatmap signal, ING5 [7, 32]: 0.3977
- Array Heatmap signal, MLL5 [8, 32]: 0.5674
- Array Heatmap signal, CHD4 (PPCC) [9, 32]: 0.6103
- Array Heatmap signal, ING3 [10, 32]: 0.4892
- Array Heatmap signal, ING2 [11, 32]: 0.5988
- Array Heatmap signal, DIDO1 [12, 32]: 0.6796
- Array Heatmap signal, KDM4C (TTP) [13, 32]: 0.5485
- Array Heatmap signal, RAG2 [14, 32]: 0.2597
- Array Heatmap signal, BAZ2B [15, 32]: 0.5314
- Array Heatmap signal, KDM5B (3) [16, 32]: 0.5142
- Array Heatmap signal, KDM5A (1) [17, 32]: 0.5057
- Array Heatmap signal, PHF23 [18, 32]: 0.5211
- Array Heatmap signal, DPF2 (PPC2W2) [19, 32]: 0.6874
- Array Heatmap signal, TAF3 [20, 32]: 0.2746
- Array Heatmap signal, PHF21A [21, 32]: 0.5055
- Array Heatmap signal, CHD5 (PCC) [22, 32]: 0.8536
- Array Heatmap signal, PHF13 [23, 32]: 0.6585
- Array Heatmap signal, ING1 [24, 32]: 0.527
- Array Heatmap signal, KDM5A (3) [25, 32]: 0.4265
- Array Heatmap signal, PHRF1 (RP) [26, 32]: 0.4358
- Array Heatmap signal, PHF2 [27, 32]: 0.4839
- Array Heatmap signal, AIRE (PP) [28, 32]: 0.5836
- Array Heatmap signal, TRIM66 (PB) [29, 32]: 0.6388
- Array Heatmap signal, BPTF (PB) [30, 32]: 0.3631
- Array Heatmap signal, SP140L [31, 32]: 0.3639

Substance: H3.3 15-34: H3.3 15-34
- Array Heatmap signal, CHD5 (PPCC) ([1]; GST-tagged CHD5 (PPCC), arrays performed twice, total replicate number n = 4): 0.5888
- Array Heatmap signal, PHF8 ([2]; GST-tagged PHF8, arrays performed twice, total replicate number n = 4): 0.386
- Array Heatmap signal, KDM5B (1) ([3]; GST-tagged KDM5B (1), arrays performed twice, total replicate number n = 4): 0.7186
- Array Heatmap signal, KDM7A ([4]; GST-tagged KDM7A, arrays performed twice, total replicate number n = 4): 0.5038
- Array Heatmap signal, ING4 ([5]; GST-tagged ING4, arrays performed twice, total replicate number n = 4): 0.4948
- Array Heatmap signal, MORC3 (CW) ([6]; GST-tagged MORC3 (CW), arrays performed twice, total replicate number n = 4): 0.367
- Array Heatmap signal, ING5 ([7]; GST-tagged ING5, arrays performed twice, total replicate number n = 4): 0.3926
- Array Heatmap signal, MLL5 ([8]; GST-tagged MLL5, arrays performed twice, total replicate number n = 4): 0.5484
- Array Heatmap signal, CHD4 (PPCC) ([9]; GST-tagged CHD4 (PPCC), arrays performed twice, total replicate number n = 4): 0.5508
- Array Heatmap signal, ING3 ([10]; GST-tagged ING3, arrays performed twice, total replicate number n = 4): 0.4684
- Array Heatmap signal, ING2 ([11]; GST-tagged ING2, arrays performed twice, total replicate number n = 4): 0.6004
- Array Heatmap signal, DIDO1 ([12]; GST-tagged DIDO1, arrays performed twice, total replicate number n = 4): 0.6133
- Array Heatmap signal, KDM4C (TTP) ([13]; GST-tagged KDM4C (TTP), arrays performed twice, total replicate number n = 4): 0.5726
- Array Heatmap signal, RAG2 ([14]; GST-tagged RAG2, arrays performed twice, total replicate number n = 4): 0.2498
- Array Heatmap signal, BAZ2B ([15]; GST-tagged BAZ2B, arrays performed twice, total replicate number n = 4): 0.5105
- Array Heatmap signal, KDM5B (3) ([16]; GST-tagged KDM5B (3), arrays performed twice, total replicate number n = 4): 0.5078
- Array Heatmap signal, KDM5A (1) ([17]; GST-tagged KDM5A (1), arrays performed twice, total replicate number n = 4): 0.5272
- Array Heatmap signal, PHF23 ([18]; GST-tagged PHF23, arrays performed twice, total replicate number n = 4): 0.5121
- Array Heatmap signal, DPF2 (PPC2W2) ([19]; GST-tagged DPF2 (PPC2W2), arrays performed twice, total replicate number n = 4): 0.6732
- Array Heatmap signal, TAF3 ([20]; GST-tagged TAF3, arrays performed twice, total replicate number n = 4): 0.298
- Array Heatmap signal, PHF21A ([21]; GST-tagged PHF21A, arrays performed twice, total replicate number n = 4): 0.4988
- Array Heatmap signal, CHD5 (PCC) ([22]; GST-tagged CHD5 (PCC), arrays performed twice, total replicate number n = 4): 0.807
- Array Heatmap signal, PHF13 ([23]; GST-tagged PHF13, arrays performed twice, total replicate number n = 4): 0.6359
- Array Heatmap signal, ING1 ([24]; GST-tagged ING1, arrays performed twice, total replicate number n = 4): 0.5055
- Array Heatmap signal, KDM5A (3) ([25]; GST-tagged KDM5A (3), arrays performed twice, total replicate number n = 4): 0.4324
- Array Heatmap signal, PHRF1 (RP) ([26]; GST-tagged PHRF1 (RP), arrays performed twice, total replicate number n = 4): 0.4107
- Array Heatmap signal, PHF2 ([27]; GST-tagged PHF2, arrays performed twice, total replicate number n = 4): 0.4208
- Array Heatmap signal, AIRE (PP) ([28]; GST-tagged AIRE (PP), arrays performed twice, total replicate number n = 4): 0.5768
- Array Heatmap signal, TRIM66 (PB) ([29]; GST-tagged TRIM66 (PB), arrays performed twice, total replicate number n = 4): 0.563
- Array Heatmap signal, BPTF (PB) ([30]; GST-tagged BPTF (PB), arrays performed twice, total replicate number n = 4): 0.3589
- Array Heatmap signal, SP140L ([31]; GST-tagged SP140L, arrays performed twice, total replicate number n = 4): 0.3703
